Measured values from patent publication US9145376B2, “Quinazolinone inhibitors of dynein” (The Rockefeller University, priority 2011, dated 2015).

What was measured:
[1] = test system: Hh pathway (Gli-responsive firefly luciferase reporter in Shh-LIGHT2 cells); test: Shh-LIGHT2 assay for Hh pathway activity; format: cell-based; details: 10% Shh-conditioned medium, 24 hours, firefly/Renilla luciferase ratio
Procedure: Shh-N-conditioned medium was prepared as described by Chen et al., Proc. Natl. Acad. Sci. U.S.A. 99, 14071 (2002). Shh-LIGHT2 cells [J. Taipale et al., Nature 406, 1005 (2000)], an NIH-3T3-based cell line containing a stably integrated Gli-responsive firefly luciferase reporter and a constitutive thymidine kinase promoter-driven Renilla luciferase expression construct (pRLTK, Promega), were cultured in DMEM containing 10% calf serum. 100 U/mL penicillin, and 0.1 mg/mL streptomycin. The cells were seeded into 96-well plates at a density of 30,000 cells/well, and the following day they were treated with individual compounds or DMSO in DMEM containing 0.5% calf serum, 10% Shh-conditioned medium, and the antibiotics described above. After being cultured for another 24 hours, the cells were lysed and their firefly and Renilla luciferase activities were determined using, a dual luciferase reporter kit (Promega) and a microplate luminometer (Veritas). Average values representing the firefly luciferase/Renilla luciferase ratio from triplicate samples were used to construct dose response profiles for each compound. Dose-response data from three separate experiments were independently curve-fitted with a variable slope, sigmoidal dose-response algorithm using Prism software, and the resulting IC50 values were used to generate an average IC50 for each compound.

[2] = test system: ciliary Gli2 in Shh-EGFP cells; test: Quantitative assessment of Hh ligand-dependent Gli2 trafficking; format: cell-based; details: 30 μM, 4 hours; for Basal and Shh-N-induced levels of ciliary Gli2: with or without 10% Shh-N-conditioned medium; for basal Gli2 concentrations in the primary cilium: without Shh-N
Procedure: Shh-EGFP cells were seeded into 24-well plates containing poly-D-lysine-coated 12-mm glass coverslips at a density of 65,000 cells/well and cultured for 24 hours in DMEM containing 10% calf serum, 100 U/mL penicillin, and 0.1 mg/mL streptomycin. The cells were then transferred into DMEM containing 0.5% calf serum and the antibiotics described above for 16 hours to promote primary cilia formation. The cells were next transferred into DMEM containing 0.5% calf serum, antibiotics, and either individual compounds at a 30 μM concentration or 0.3% DMSO. Each compound or vehicle treatment was conducted in the presence or absence of 10% Shh-N-conditioned medium, and the cells were cultured under these conditions for 4 hours. The cells were subsequently fixed in PBS containing 4% paraformaldehyde for 10 minutes at room temperature, washed 3×5 minutes in PBS containing 50 mM glycine, permeabilized in PBS containing 0.3% Triton X-100 […], and then blocked overnight at 4° C. in PBS containing 5% normal donkey serum, 0.1% Triton X-100, and 0.05% sodium azide. After blocking was complete, the coverslips were incubated in blocking buffer containing rabbit polyclonal anti-Arl13b antibody (1:3000 dilution), goat polyclonal anti-Gli2 antibody (1:50 dilution; R & D Systems, AF3635), and mouse monoclonal anti-γ-tubulin (1:200 dilution; Sigma-Aldrich, T5326) for 90 minutes at room temperature. The cells were then washed 4×5 minutes with PBS containing 0.1% Triton X-100 and incubated in blocking buffer containing DyLight 488-conjugated donkey polyclonal anti-goat IgG antibody (3 μg/mL; Jackson ImmunoResearch, 705-485-147), DyLight 594-conjugated donkey polyclonal […] IgG antibody (3 μg/mL; Jackson ImmunoResearch, 715-515-151), and DyLight 649-conjugated donkey polyclonal […] IgG antibody (3 μg/mL; Jackson ImmunoResearch, 711-495-152) for 60 minutes. Following, this secondary antibody incubation, nuclei were stained by incubating the cells 2×10 minutes with PBS containing 0.1% Triton X-100 and 0.5 μg/mL DAPI and washing them 2×5 minutes with PBS. The coverslips were subsequently mounted onto slides using Prolong Gold Antifade Reagent (Invitrogen) and imaged using a Plan Apochromat 63×/1.4 NA oil immersion objective on a Zeiss Axio1mager Z1 upright microscope equipped with an LSM700 laser scanning confocal head. Ciliary Gli2 levels were quantified by determining total pixel intensity within a 0.69 μm-diameter circle at the distal tip of the axoneme and subtracting background fluorescence in an adjacent region of equivalent size. At least 25 cilia were analyzed to determine the average ciliary Gli2 level for each experimental condition.

Row | Compound | IC50 [1] | Basal and Shh-N-induced levels of ciliary Gli2 [2] | basal Gli2 concentrations in the primary cilium [2]
1 | N#C/C(C(=O)c1ccccc1)=C1\NC(=O)c2ccccc2N1 [Example 16, 3-oxo-2-(4-oxo-3,4-dihydroquinazolin-2(1H)-ylidene)-3-phenylpropanenitrile] | 23 µM | unchanged | –
2 | N#C/C(C(=O)c1ccc(Cl)cc1)=C1\NC(=O)c2ccccc2N1 [Example 2, 3-(4-chlorophenyl)-3-oxo-2-(4-oxo-3,4-dihydroquinazolin-2(1H)-ylidene)propanenitrile] | 5.2 µM | unchanged | –
3 | N#C/C(C(=O)c1ccc(Cl)cc1Cl)=C1\NC(=O)c2ccc(Cl)cc2N1 [Example 31, 2-(7-chloro-4-oxo-3,4-dihydroquinazolin-2(1H)-ylidene)-3-(2,4-dichlorophenyl)-3-oxo-propanenitrile] | 15 µM | – | increased basal Gli2 concentrations in this signaling organelle to levels comparable to that induced by Shh-N
4 | N#C/C(C(=O)c1ccc(Cl)cc1Cl)=C1\NC(=O)c2ccccc2N1 [Example 1, 3-(2,4-dichlorophenyl)-3-oxo-2-(4-oxo-3,4-dihydroquinazolin-2(1H)-ylidene)propanenitrile] | 9.9 µM | – | increased basal Gli2 concentrations in this signaling organelle to levels comparable to that induced by Shh-N
